Measured values reported in PMC10005185, “Structure-guided engineering of a receptor-agonist pair for inducible activation of the ABA adaptive response to drought” (Science Advances, 2023).

Tested on: ABI1 with CsPYL1^5m
Assay type: biochemical, Citrus sinensis (CsPYL1^5m); Arabidopsis thaliana (ABI1)
Method: His-tagged receptors and phosphatases were purified using nickel–nitrilotriacetic acid (Ni-NTA) affinity chromatography. Protein integrity was analyzed by SDS–polyacrylamide gel electrophoresis, followed by InstantBlue staining. Phosphatase activity was measured using p-Nitrophenyl Phosphate (pNPP) (25 mM) as substrate, 10 mM MnCl2,1 μM PP2C, and 2 μM of the indicated receptors. […] Assays were repeated twice. For dose-response experiments, IC50 values were obtained with GraphPad Prism 9 using a nonlinear regression curve fit. Each ligand concentration was tested in triplicate. Phosphatase activity of ABI1 was measured using RRA(phosphoT)VA peptide as a substrate, as described ([27]).

CCn1c(=O)cc(C)c2cc(CNS(=O)(=O)c3ccccc3)ccc21 [iSB09]
sensitivity of ABI1 relative to HAB1 to iSB09-mediated CsPYL1^5m-dependent inhibition: fivefold more sensitive
